Values quoted from earlier work as cited in patent US20250352610A1, “NOVEL COMPOSITION” (Arecor Limited, priority 2022, published 2025).

Conditions: excipients of VancoReady; black box warning

Fetal malformations in animal reproductive studies: cause fetal malformations
Compound: CC(=O)N[C@H](C)C(=O)O [N-acetyl-D-alanine]
